The NIST ThermoML archive (doi:10.1021/acs.jced.7b01026)

Key:
[1] = Crystal; DTA
[2] = Molar enthalpy of transition or fusion; conditions: Crystal; DSC
[3] = molar heat capacity at constant pressure
[4] = Boiling temperature at pressure P; conditions: 100 kPa; Glass; DTA

COc1cccc(OC)c1O [1,3-dimethoxy-2-hydroxybenzene]
Conditions | Molar enthalpy of transition or fusion [kcal/mol] | Normal melting temperature [°C]
[1] | – | 53.2
[2] | 12 | –

[3], 101.33 kPa, Liquid, DSC
Conditions | molar heat capacity at constant pressure [J/K/mol]
333.16 K | 317.27
373.15 K | 328.21
413.14 K | 333.46
453.12 K | 347.18
493.1 K | 357.35

CCC(O)c1ccccc1 (stereo not drawn) [1-phenyl-1-propanol]
Conditions | Boiling temperature at pressure P [°C] | Normal melting temperature [°C]
[1] | – | -10.6
[4] | -74.3 | –

[3], 101.33 kPa, Liquid, DSC
Conditions | molar heat capacity at constant pressure [J/K/mol]
273.15 K | 279.6
323.15 K | 319.91
373.15 K | 338.03
423.15 K | 352.6
473.15 K | 368.94

CC(O)Cc1ccccc1 (stereo not drawn) [1-phenyl-2-propanol]
Conditions | Boiling temperature at pressure P [°C]
[4] | -72.5

[3], 101.33 kPa, Liquid, DSC
Conditions | molar heat capacity at constant pressure [J/K/mol]
273.15 K | 282.05
323.15 K | 311.06
373.15 K | 329.31
423.15 K | 345.52
473.15 K | 354.78

CCCOCC(C)O (stereo not drawn) [1-propoxy-2-propanol]
[3], 101.33 kPa, Liquid, DSC
Conditions | molar heat capacity at constant pressure [J/K/mol]
193.19 K | 237.41
223.15 K | 247.93
273.16 K | 271.09
323.16 K | 290.12
373.15 K | 314.7

FC(F)C(F)(F)C(F)(F)C(F)(F)C(F)(F)C(F)(F)C(F)(F)C(F)(F)F [1H-perfluorooctane]
Conditions | Molar enthalpy of transition or fusion [kcal/mol] | Normal melting temperature [°C]
[1] | – | -18.8
[2] | 2.36 | –

[3], 101.33 kPa, Liquid, DSC
Conditions | molar heat capacity at constant pressure [J/K/mol]
258.16 K | 446.11
273.16 K | 458.71
298.16 K | 480.14
323.16 K | 494.84
373.14 K | 526.76

Cc1ccc(C)o1 [2,5-dimethylfuran]
[3], 101.33 kPa, Liquid, DSC
Conditions | molar heat capacity at constant pressure [J/K/mol]
213.15 K | 159.28
253.15 K | 163.99
293.15 K | 170.63
333.15 K | 184.95

CC(C)c1ccccc1O [2-(1-methylethyl)phenol]
Conditions | Molar enthalpy of transition or fusion [kcal/mol] | Normal melting temperature [°C]
[1] | – | 12
[2] | 2.62 | –

molar heat capacity at constant pressure [J/K/mol], [3], 101.33 kPa
Conditions | 273.15 K | 323.15 K | 373.15 K | 423.15 K | 473.15 K
DSC, Liquid | – | 307.38 | 321.55 | 337.89 | 354.37
Metastable liquid, DSC | 281.92 | – | – | – | –

C/C=C/c1ccc(O)c(OC)c1 [2-methoxy-4-(1E)-1-propen-1-yl-phenol]
Conditions | Molar enthalpy of transition or fusion [kcal/mol] | Normal melting temperature [°C]
[1] | – | 21.6
[2] | 2.8 | –

[3], 101.33 kPa, Liquid, DSC
Conditions | molar heat capacity at constant pressure [J/K/mol]
298.15 K | 326.92
323.15 K | 336.45
373.15 K | 348.43
423.15 K | 381.6
473.15 K | 387.19

Cc1ccccc1C=O [2-methylbenzaldehyde]
Conditions | Molar enthalpy of transition or fusion [kcal/mol] | Normal melting temperature [°C]
[1] | – | -39.7
[2] | 2.44 | –

[3], 101.33 kPa, Liquid, DSC
Conditions | molar heat capacity at constant pressure [J/K/mol]
238.16 K | 184.43
293.16 K | 199.57
348.15 K | 217.83
403.13 K | 230.69
458.11 K | 261.08

CC(CO)c1ccccc1 (stereo not drawn) [2-phenyl-1-propanol]
Conditions | Boiling temperature at pressure P [°C]
[4] | -75.5

[3], 101.33 kPa, Liquid, DSC
Conditions | molar heat capacity at constant pressure [J/K/mol]
273.15 K | 273.34
323.15 K | 300.98
373.15 K | 325.91
423.15 K | 341.98
473.15 K | 351.78
